Laboratory results published in patent publication US9180111B2, “Reduction in complement activation and inflammation during tissue injury by carotenoids, carotenoid analogs, or derivatives thereof” (Cardax Pharma, Inc., priority 2005, dated 2015).

Key:
[1] = system: cardiac-specific troponin I (cTnI); test: Measurement of cardiac-specific troponin I by ELISA; assay type: in vivo, rabbit; conditions: rabbits, 50 mg/kg i.v. 4 days; not statistically significant
Procedure: Whole blood was drawn at baseline (pre-ischemia) and at the end of reperfusion for the determination of cardiac-specific troponin I (cTnI). Serum levels of the proteins were measured using a commercially available ELISA kit. Collected plasma samples were prepared from whole blood and were snap frozen in liquid nitrogen. The samples were stored at −80° C. until the day of the assay when they were thawed over ice and diluted appropriately with the sample diluent supplied with each assay kit. Determination of the target protein using a protein standard curve was performed according to standard procedure in the art.

CRP = CRP deposition in heart tissue by indirect immunofluorescence; assay type: in vivo, rabbit; conditions: rabbits, 50 mg/kg i.v. 4 days, 30 min ischemia, 3 h reperfusion; p<0.05
Procedure: The immunofluorescent method for detection of CRP was performed essentially as described previously (Lauver et al., 2005). Briefly, tissue samples used for infarct size determination were fixed in 10% buffered formalin immediately after the completion of the experimental protocol. The tissue samples were embedded in paraffin blocks and cut into sections of 2 μm in thickness, which were then mounted on glass slides. Two consecutive sections (mirror images) from a single heart slice were mounted on each slide. The slides were deparaffinized and subjected to antigen unmasking using a commercially available kit for this purpose (Vector Laboratories, Burlingame, Calif.). After blocking for 30 minutes, primary antibodies were incubated at room temperature in a humidity chamber for 45 minutes. One section per slide was incubated with a chicken anti-rabbit CRP antibody (5 μg/ml final concentration, Strategic BioSolutions, Newark, Del.) and the other section was incubated with a chicken anti-rabbit MAC antibody (1:2500 final dilution, developed in conjunction with Lampire Biological Laboratories, Pipersville, Pa.). […] Images were analyzed using IP Lab (Scanalytics, Inc., Fairfax, Va.) software to determine mean fluorescence intensity per heart section. […]

mongrel canines = conditions: 50 mg/kg i.v., four days; cited from earlier work
rabbit complement system = test: Complement-mediated red blood cell (RBC) hemolysis assay, ex vivo, rabbit plasma on human erythrocytes; assay type: in vivo; conditions: plasma after 3 h reperfusion, 50 mg/kg, 4 days; p<0.01
Procedure: A red blood cell (RBC) lysis assay was used to determine whether the pretreatment with DDA compared to placebo-treated animals was able to inhibit the rabbit complement system. The ex vivo analysis of complement activity is based on the C5b-9-dependent lysis of human red blood cells upon exposure to rabbit plasma. Complement-mediated RBC hemolysis was assessed by a turbidometric method described previously (Pascual et al., 1990). The hemolysis assay is an accepted method of assessing the complement titer of plasma or serum samples (Whaley, 1985). Rabbit plasma was obtained from whole blood samples drawn from rabbits that were pretreated with DDA (50 mg/kg, 4 days, n=5) or sterile 0.9% sodium chloride solution (4 days, n=5). After obtaining informed consent, human whole blood for the isolation of red blood cells was obtained by venipuncture of the forearm vein of a healthy donor who had not been exposed to any medication for the past seven days. The cells were washed three times in 10 ml phosphate buffered saline (PBS, pH 7.4) and diluted in PBS to achieve a final RBC concentration of 1×10^8 cells/ml. The assay was initiated by the addition of 15 μl of diluted human RBCs to 185 μl of rabbit plasma, and the light transmittance was monitored for 5 min. The final assay volume was 200 μl. […]

superoxide anion = test: Direct superoxide anion scavenging by EPR spectroscopy (DEPMPO spin-trap) in PMA-stimulated isolated human neutrophils; assay type: cell-based; conditions: aqueous phase
Procedure: Human polymorphonuclear leukocytes (PMNs) were isolated from freshly sampled venous blood of a single volunteer by Percoll density gradient centrifugation as described previously. Briefly, each 10 mL of whole blood was mixed with 0.8 mL of 0.1 M EDTA and 25 mL of saline. The diluted blood was then layered over 9 mL of Percoll at a specific density of 1.080 g/mL. After centrifugation at 400×g for 20 min at 20° C., the plasma, mononuclear cell, and Percoll layers were removed. Erythrocytes were subsequently lysed by addition of 18 mL of ice-cold water for 30 s, followed by 2 mL of 10×PIPES buffer (25 mM PIPES, 110 mM NaCl, and 5 mM KCl, titrated to pH 7.4 with NaOH). Cells were then pelleted at 4° C., the supernatant was decanted, and the procedure was repeated. […] Afterward, PMNs were counted by light microscopy on a hemocytometer. […] The microwave frequency was measured with a Model 575 microwave counter (EIP Microwave, Inc., San Jose, Calif.). […]
Instrument settings used in the spin-trapping experiments were as follows: modulation amplitude, 0.32 G; time constant, 0.16 s; scan time, 60 s; modulation frequency, 100 kHz; microwave power, 20 milliwatts; and microwave frequency, 9.76 GHz. The samples were placed in a quartz EPR flat cell, and spectra were recorded. The component signals in the spectra were identified and quantified as reported previously.

In the case of `CC1=C(/C=C/C(C)=C/C=C/C(C)=C/C=C/C=C(C)/C=C/C=C(C)/C=C/C2=C(C)C(=O)C(OC(=O)CCC(=O)O)CC2(C)C)C(C)(C)CC(OC(=O)CCC(=O)O)C1=O` (centres unmarked) [DDA, disodium disuccinate astaxanthin], the “mean serum cTnI concentration at the end of reperfusion versus vehicle controls” value [1] is given as “lower mean cTnI concentration”, the “CRP deposition in infarct region (fluorescence intensity) versus saline” value (CRP) is given as “significantly reduced fluorescence” and the mean myocardial salvage (mongrel canines) is given as 68%. The “rabbit plasma-induced human erythrocyte hemolysis versus placebo” value (rabbit complement system) was “significantly attenuated” and the “direct aqueous superoxide anion scavenging” value (superoxide anion) was “potent direct scavengers of superoxide anion”.
